In general, LD50 refers to the dose expected to kill half of the subjects tested.

The results in this text go back to patent US3953293A, “Process for the preparation of xylostasin” (Takeda Chemical Industries, Ltd., priority 1972, dated 1976).

The test system of one data set is Bacillus brevis IFO 3331. Briefly: Minimal inhibitory concentration by the agar dilution method. It is filed as cell-based. The settings on record: Brevibacillus brevis, IFO3331, bouillon agar. An excerpt:
(§1) Minimal inhibitory concentrations by the
(§2) The media used for the test are bouillon agar for the common bacteria and glycerin bouillon agar for acid fast bacteria.
(In agar dilution the substance is mixed into plates at graded concentrations.)

In a further data set the test system is Bacillus cereus IFO 3466. The data set is described as above. It is filed as cell-based. The note with it: IFO3466, bouillon agar.
Description: as §1, §2

The test system of data set [1] is Bacillus subtilis PCI 219. The data set is described as above. It is filed as cell-based. The settings on record: PCI219, bouillon agar.
Description: as §1, §2

Data set [2] concerns Escherichia coli IFO 3044. The description is as above. It is filed as cell-based. The note with it: IFO3044, bouillon agar.
Description: as §1, §2

The test system of data set [3] is Mycobacterium avium (Neomycin-resistant). Described as above. The settings on record: read-out: Minimal inhibitory concentration. The data set is classed as cell-based.
Description: as §1, §2

The test system of data set [4] is Mycobacterium avium (Streptomycin-resistant). The description is as above. It is filed as cell-based. The settings on record: read-out: Minimal inhibitory concentration.
Description: as §1, §2

The subject of data set [5] is Mycobacterium avium IFO 3153. Described as above. The note with it: IFO3153, glycerin bouillon agar. The data set is classed as cell-based.
Description: as §1, §2

Data set [6] deals with Mycobacterium phlei IFO 3158. The description is as above. The settings on record: Mycolicibacterium phlei, IFO3158, glycerin bouillon agar. The data set is classed as cell-based.
Description: as §1, §2

Data set [7] relates to Mycobacterium smegmatis IFO 3083. Described as above. It is filed as cell-based. The settings on record: Mycolicibacterium smegmatis, IFO3083, glycerin bouillon agar.
Description: as §1, §2

The subject of data set [8] is Proteus vulgaris IFO 3045. Described as above. It is filed as cell-based. The settings on record: IFO3045, bouillon agar.
Description: as §1, §2

Data set [9] concerns Pseudomonas aeruginosa IFO 3080. The description is as above. It is filed as cell-based. The note with it: IFO3080, bouillon agar.
Description: as §1, §2

The test system of another data set is Sarcina lutea IFO 3232. The data set is described as above. The settings on record: Micrococcus luteus, IFO3232, bouillon agar. It is filed as cell-based.
Description: as §1, §2

A further data set concerns Shigella flexneri EW-10. The description is as above. It is filed as cell-based. The note with it: EW10, bouillon agar.
Description: as §1, §2

Data set [10] has as its system Staphylococcus aureus FDA 209P. The description is as above. The data set is classed as cell-based. The note with it: FDA209P, bouillon agar.
Description: as §1, §2

The nature of data set [11]: Acute toxicity by intravenous injection into mice. The settings on record: mouse, in vivo, free base. On the procedure:
The acute toxicity of xylostasin was examined by intravenous injection into mice. The LD50 value for the free base was approximately 1,000 mg/kg.

A further data set has as its system Escherichia coli 0-111. Briefly: Anti-infection test in mice. The settings on record: mice infected with Escherichia coli 0-111; single subcutaneous dose of 10 mg/kg immediately after infection. The data set is classed as in vivo.

Converted amounts (≈) assume the structure as drawn.

As for `NC[C@H]1O[C@H](O[C@H]2[C@H](O[C@@H]3O[C@H](CO)[C@H](O)[C@H]3O)[C@@H](O)[C@H](N)C[C@@H]2N)[C@H](N)[C@@H](O)[C@@H]1O` [xylostasin, O-β-D-xylofuranosyl-(1 → 5)-O-[α-2,6-diamino-2,6-dideoxy-D-glucopyranosyl-(1 → 4)]-2-deoxystreptamine], the MIC against Bacillus brevis IFO 3331 is 25 µg/mL (≈ 55 µM); against Bacillus cereus IFO 3466 it was 50 µg/mL (≈ 110 µM); in data set [1] it was 3.12 µg/mL (≈ 6.88 µM); in [2], 6.25 µg/mL (≈ 13.8 µM); in data set [3] it was greater than 50 µg/mL; in data set [4], 3.12 µg/mL (≈ 6.88 µM). For the same molecule, the MIC was 1.6 µg/mL (≈ 3.52 µM) in data set [5]; 1.6 µg/mL (≈ 3.52 µM) in data set [6]; 1.6 µg/mL (≈ 3.52 µM) in data set [7]; 50 µg/mL (≈ 110 µM) in [8]; greater than 50 µg/mL in [9]; 25 µg/mL (≈ 55 µM) in the data set on Sarcina lutea IFO 3232. In addition, the MIC amounted to 12.5 µg/mL (≈ 27.5 µM) with Shigella flexneri EW-10 and 6.25 µg/mL (≈ 13.8 µM) in data set [10]. Further, in data set [11], the median lethal dose (LD50) is roughly 1000 mg/kg. Besides, the “death of the mice” value in the data set with Escherichia coli 0-111 is listed as “completely prevented”.
